In patent publication US10517889B2, “Modulators of SMAD7 expression” (Ionis Pharmaceuticals, Inc., priority 2017, dated 2019):
Strand notation (5' to 3'): a small letter for the sugar, then the base; units joined by * are phosphorothioate-linked, units joined directly phosphodiester-linked; [ ] holds rarer units or linkages, { } end groups; capitals alone tell only the bases. k = constrained ethyl (cEt); [5mC] = 5-methylcytosine; d = 2'-deoxy (DNA)

Tested on: human SMAD7 mRNA
Assay: Antisense inhibition of human SMAD7 mRNA expression in Hep3B cells by 3-10-3 cEt gapmers, 10,000 nM, electroporation (Example 2)
Type: cell-based
Conditions: approximately 24 hours
How it was run: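 Hep3B, 20,000 cells/well; electroporation, 10,000 nM ASO; ~24 h. Readout: SMAD7 mRNA by qRT-PCR (RTS5062), RIBOGREEN-normalised; % inhibition vs untreated.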

[1] = Hep3B cells, electroporation with 10,000 nM antisense oligonucleotide, SMAD7 mRNA by RT-PCR (RTS5062), relative to untreated control cells
[2] = Hep3B cells, electroporation with 10,000 nM antisense oligonucleotide, primer probe set RTS5062, relative to untreated control cells
[3] = SMAD7 mRNA, Hep3B cells, electroporation with 10,000 nM antisense oligonucleotide, primer probe set RTS5062, relative to untreated control cells
[4] = Hep3B cells, 10,000 nM antisense oligonucleotide, electroporation, RT-PCR primer probe set RTS5062, relative to untreated control cells
[5] = SMAD7 mRNA, Hep3B cells, 10,000 nM antisense oligonucleotide, electroporation, primer probe set RTS5062, relative to untreated control cells
[6] = Hep3B cells, electroporation, 10,000 nM antisense oligonucleotide, RTS5062, relative to untreated control cells
[7] = Hep3B cells, electroporation with 10,000 nM antisense oligonucleotide, RTS5062, percent inhibition of SMAD7 mRNA relative to untreated control cells

800083 (antisense kT*kG*k[5mC]*dA*dG*dA*d[5mC]*d[5mC]*dG*dG*dT*dA*dT*kT*kA*kA) [compound 800083]
% Inhibition [1]: 11%

799150 (antisense k[5mC]*kT*kA*dG*dG*dA*dT*dG*dG*dT*dA*d[5mC]*d[5mC]*kT*kT*kG) [compound 799150]
% inhibition of SMAD7 mRNA expression [2]: 22%

799116 (antisense kT*kA*kA*d[5mC]*dA*d[5mC]*dA*d[5mC]*dA*dG*dG*dA*dT*kG*kG*kG) [compound 799116]
% Inhibition [2]: 34%

799888 (antisense kG*kG*kA*d[5mC]*dA*dA*dA*dA*d[5mC]*d[5mC]*d[5mC]*d[5mC]*dT*kA*kG*kA) [compound 799888]
% Inhibition [1]: 22%

829913 (antisense k[5mC]*k[5mC]*kT*dT*dG*dG*dG*dT*dT*dA*dT*dG*dA*k[5mC]*kG*kG) [compound 829913]
% Inhibition [3]: 40%

799109 (antisense k[5mC]*kA*kG*dT*dG*d[5mC]*dT*dG*dA*dG*d[5mC]*dT*dG*kG*kT*kT) [compound 799109]
% inhibition of SMAD7 mRNA expression [2]: 48%

799078 (antisense kA*kT*k[5mC]*d[5mC]*dA*dG*dG*dA*dG*d[5mC]*dA*dG*dA*kT*kG*kG) [compound 799078]
% Inhibition [2]: 19%

799005 (antisense k[5mC]*kG*kT*dG*d[5mC]*dA*d[5mC]*dA*d[5mC]*dA*d[5mC]*dA*dG*k[5mC]*k[5mC]*kG) [compound 799005]
% inhibition of SMAD7 mRNA expression [2]: 0%

799978 (k[5mC]*kT*k[5mC]*d[5mC]*dA*d[5mC]*dA*dA*d[5mC]*dG*dG*dA*d[5mC]*kA*kT*k[5mC]; antisense) [compound 799978]
% Inhibition [4]: 24%

830089 (kA*kA*kG*dA*d[5mC]*d[5mC]*d[5mC]*dT*dG*dT*dA*dA*dG*k[5mC]*kT*kT; antisense) [compound 830089]
% Inhibition [1]: 9%

772563 (antisense kG*kG*k[5mC]*d[5mC]*dA*d[5mC]*d[5mC]*dT*dG*dA*dA*d[5mC]*dA*k[5mC]*kT*kT) [compound 772563]
% Inhibition [1]: 0%

829984 (kA*kG*kG*d[5mC]*dG*dG*dT*dG*dA*dT*dT*dG*d[5mC]*k[5mC]*kT*kT; antisense) [compound 829984]
% Inhibition [3]: 0%

799040 (kA*kG*k[5mC]*dT*dG*d[5mC]*dT*dG*dG*dG*dA*d[5mC]*d[5mC]*k[5mC]*k[5mC]*kA; antisense) [compound 799040]
% Inhibition [2]: 51%

829717 (antisense kA*kG*kT*d[5mC]*dT*d[5mC]*d[5mC]*d[5mC]*dG*dG*dA*dG*dG*k[5mC]*k[5mC]*kG) [compound 829717]
% Inhibition [5]: 28%

799341 (kG*kA*kA*dG*dG*dA*dA*dA*dA*dA*dG*dT*dA*kG*kG*kG; antisense) [compound 799341]
% inhibition of SMAD7 mRNA expression [2]: 8%

798908 (k[5mC]*kG*k[5mC]*dG*dG*d[5mC]*dT*dA*d[5mC]*d[5mC]*dG*dG*d[5mC]*kT*kG*kT; antisense) [compound 798908]
% Inhibition [4]: 0%

799123 (antisense k[5mC]*kT*kT*dG*d[5mC]*dT*dG*dG*d[5mC]*d[5mC]*dT*dA*dA*kT*kA*kG) [compound 799123]
% inhibition of SMAD7 mRNA expression [2]: 23%

829784 (antisense kA*kG*kA*dT*d[5mC]*d[5mC]*dG*dG*d[5mC]*d[5mC]*dA*d[5mC]*d[5mC]*kT*kG*kA) [compound 829784]
% Inhibition [5]: 32%

799171 (antisense kT*kG*k[5mC]*dT*d[5mC]*dA*dT*dT*dG*dA*dG*d[5mC]*dT*kA*kA*kG) [compound 799171]
% inhibition of SMAD7 mRNA expression [2]: 30%

799401 (antisense kT*k[5mC]*kT*dT*dT*dT*dA*dA*dG*dG*dA*dA*dA*kA*k[5mC]*k[5mC]) [compound 799401]
% inhibition of SMAD7 mRNA expression [2]: 53%

829830 (kA*kA*kT*d[5mC]*dT*dG*dA*dA*dA*dG*d[5mC]*d[5mC]*d[5mC]*k[5mC]*k[5mC]*k[5mC]; antisense) [compound 829830]
% Inhibition [3]: 36%

830082 (kG*kG*kT*dG*dT*dA*dT*dA*d[5mC]*d[5mC]*d[5mC]*dT*dG*k[5mC]*kA*k[5mC]; antisense) [compound 830082]
% Inhibition [1]: 34%

799198 (antisense kG*kT*k[5mC]*d[5mC]*dT*dT*dT*d[5mC]*dT*d[5mC]*dT*d[5mC]*dT*k[5mC]*kA*kA) [compound 799198]
% inhibition of SMAD7 mRNA expression [2]: 17%

829843 (antisense kG*kA*kA*dT*dT*dG*dA*dG*d[5mC]*dT*dG*dT*d[5mC]*k[5mC]*kG*kA) [compound 829843]
% Inhibition [3]: 49%

798881 (k[5mC]*k[5mC]*kG*dT*d[5mC]*d[5mC]*dA*d[5mC]*dG*dG*d[5mC]*dT*dG*k[5mC]*kT*kG; antisense) [compound 798881]
% Inhibition [1]: 14%

799555 (kT*kA*k[5mC]*d[5mC]*d[5mC]*d[5mC]*dG*dT*dG*d[5mC]*d[5mC]*dT*dG*kT*k[5mC]*kA; antisense) [compound 799555]
% inhibition of SMAD7 mRNA expression [6]: 51%

798718 (antisense kA*kT*k[5mC]*d[5mC]*dA*dG*d[5mC]*d[5mC]*d[5mC]*dT*dG*d[5mC]*d[5mC]*k[5mC]*kG*kG) [compound 798718]
% Inhibition [1]: 37%

799764 (antisense kA*k[5mC]*kG*d[5mC]*dT*dA*dA*dG*dG*dA*dA*dA*dA*kA*kG*k[5mC]) [compound 799764]
% Inhibition [7]: 19%

799809 (antisense k[5mC]*kA*kA*dT*dA*d[5mC]*dT*dG*dA*dA*dA*dT*dG*kA*kG*k[5mC]) [compound 799809]
% Inhibition [7]: 43%

798674 (antisense k[5mC]*kA*kG*dG*d[5mC]*dG*dA*d[5mC]*dA*dG*d[5mC]*dA*dG*k[5mC]*kA*kG) [compound 798674]
% inhibition of SMAD7 mRNA expression [2]: 39%

829931 (kA*kA*k[5mC]*dA*d[5mC]*d[5mC]*dA*dA*dT*d[5mC]*dT*dT*dG*kT*kG*kT; antisense) [compound 829931]
% Inhibition [3]: 0%

798921 (kG*kG*k[5mC]*d[5mC]*dT*dG*d[5mC]*dT*d[5mC]*dA*dG*d[5mC]*dT*k[5mC]*kA*k[5mC]; antisense) [compound 798921]
% Inhibition [1]: 42%

799790 (kG*kA*kG*dA*d[5mC]*d[5mC]*dT*dA*d[5mC]*d[5mC]*dT*d[5mC]*dT*kG*kT*kT; antisense) [compound 799790]
% Inhibition [7]: 33%

800088 (antisense kA*kA*kT*dG*dA*dG*dG*dG*dT*dG*dG*d[5mC]*dT*kT*kG*kG) [compound 800088]
% Inhibition [1]: 54%

799115 (antisense kA*k[5mC]*kA*d[5mC]*dA*dG*dG*dA*dT*dG*dG*dG*dA*kG*k[5mC]*kA) [compound 799115]
% Inhibition [2]: 40%

830017 (antisense kA*kG*kG*d[5mC]*dG*dG*dA*dA*dG*dG*dA*d[5mC]*dT*kT*kG*k[5mC]) [compound 830017]
% Inhibition [1]: 30%

799542 (kG*kT*kT*dA*dA*dT*dG*dA*d[5mC]*dA*d[5mC]*d[5mC]*dA*kA*kA*kG; antisense) [compound 799542]
% inhibition of SMAD7 mRNA expression [6]: 30%

829989 (kG*kG*k[5mC]*d[5mC]*dG*d[5mC]*dG*dA*dG*dG*d[5mC]*dG*dG*kT*kG*kA; antisense) [compound 829989]
% Inhibition [3]: 2%

829953 (kG*kT*k[5mC]*dA*d[5mC]*d[5mC]*d[5mC]*dG*dT*d[5mC]*dT*dG*dG*kG*k[5mC]*kT; antisense) [compound 829953]
% Inhibition [3]: 34%

829889 (antisense k[5mC]*kG*kT*d[5mC]*d[5mC]*dA*d[5mC]*dG*dG*d[5mC]*dT*dG*d[5mC]*kT*kG*k[5mC]) [compound 829889]
% Inhibition [3]: 48%

829829 (kT*k[5mC]*kT*dG*dA*dA*dA*dG*d[5mC]*d[5mC]*d[5mC]*d[5mC]*d[5mC]*k[5mC]*kA*kG; antisense) [compound 829829]
% Inhibition [3]: 11%

830143 (antisense kG*kG*kT*dG*dT*dG*d[5mC]*dA*d[5mC]*d[5mC]*dA*dG*dG*kT*kG*kA) [compound 830143]
% Inhibition [1]: 62%

829773 (antisense kG*kT*kA*dG*dG*dA*d[5mC]*dG*dA*dG*dG*dG*d[5mC]*kG*kG*k[5mC]) [compound 829773]
% Inhibition [5]: 50%

798810 (kA*kA*kG*dT*dT*dG*dG*dG*dA*dA*dT*d[5mC]*dT*kG*kA*kA; antisense) [compound 798810]
% inhibition of SMAD7 mRNA expression [2]: 0%

799087 (antisense k[5mC]*k[5mC]*k[5mC]*d[5mC]*dG*dG*d[5mC]*dA*dG*d[5mC]*d[5mC]*d[5mC]*dT*kT*kG*kG) [compound 799087]
% inhibition of SMAD7 mRNA expression [2]: 69%

799240 (kA*kT*k[5mC]*dT*dG*dG*dA*d[5mC]*dA*dG*dT*d[5mC]*dA*kG*kT*kT; antisense) [compound 799240]
% inhibition of SMAD7 mRNA expression (Hep3B cells, electroporation, 10,000 nM, 3-10-3 cEt gapmers targeting SEQ ID NO: 3 and 4): 45%
